Data on 16 compounds can be found in patent US9321753B2, “Inhibitors of Flaviviridae viruses” (Gilead Sciences, Inc., priority 2010, dated 2016).

Read-outs that look alike come from different tables or passages of the source.

For the assay, the system named is HCV replicon. As to the kind of experiment: HCV replicon assay in human hepatoma Huh-7 cell line (luciferase readout). Type of assay: cell-based. As to conditions: for inhibition at 2 µM: Hepatitis C virus, Huh-7, 72 h, read-out: % inhibition at 2 μM. Here is the method:
The anti-HCV activity of the compounds of this invention was tested in a human hepatoma Huh-7 cell line harboring a HCV replicon. The assay comprised the following steps:
Serial dilution was performed in 100% DMSO in a 384-well plate. A solution containing a compound at 225-fold concentration of the starting final serial dilution concentration was prepared in 100% DMSO and 15 uL added to the pre-specified wells in column 3 or 13 of a polypropylene 384-well plate. The rest of the 384-well plate was filled with 10 uL 100% DMSO except for columns 23 and 24, where 10 uL of 500 uM a HCV protease inhibitor (ITMN-191) in 100% DMSO was added. The HCV protease inhibitor was used a control of 100% inhibition of HCV replication. The plate was then placed on a Biomek FX Workstation to start the serial dilution. The serial dilution was performed for ten cycles of 3-fold dilution from column 3 to 12 or from column 13 to 22.
To each well of a black polypropylene 384-well plate, 90 μL of cell media containing 1600 suspended Huh-7 HCV replicon cells was added with a Biotek uFlow Workstation. A volume of 0.4 μL of the compound solution was transferred from the serial dilution plate to the cell culture plate on a Biomek FX Workstation. The DMSO concentration in the final assay condition was 0.44%. The plates were incubated for 3 days at 37° C. with 5% CO2 and 85% humidity.
a) Assessment of cytotoxicity: The media in the 384-well cell culture plate was aspirated with a Biotek EL405 plate-washer. A volume of 50 μL of a solution containing 400 nM Calcein AM in 100% PBS was added to each well of the plate with a Biotek uFlow Workstation. The plate was incubated for 30 minutes at room temperature before the fluorescence signal ([…]) was measured with a Perkin Elmer Envision Plate Reader.
b) Assessment of inhibition of viral replication: The calcein-PBS solution in the 384-well cell culture plate was aspirated with a Biotek EL405 plate-washer. A volume of 20 μL of Dual-Glo luciferase buffer (Promega, Dual-Glo Luciferase Assay Reagent, cat. #E298B) was added to each well of the plate with a Biotek uFlow Workstation. The plate was incubated for 10 minutes at room temperature. A volume of 20 μL of a solution containing 1:100 mixture of Dual-Glo Stop & Glo substrate (Promega, Dual-Glo Luciferase Assay Reagent, cat. #E313B) and Dual-Glo Stop & Glo buffer (Promega, Dual-Glo Luciferase Assay Reagent, cat #E314B) was then added to each well of the plate with a Biotek uFlow Workstation. The plate was incubated at room temperature for 10 minutes before the luminescence signal was measured with a Perkin Elmer Envision Plate Reader.
The percent cytotoxicity was determined by calcein AM conversion to fluorescent product. The average fluorescent signal from the DMSO control wells were defined as 100% nontoxic. The individual fluorescent signal from testing compound treated well was divided by the average signal from DMSO control wells and then multiplied by 100% to get the percent viability. The percent anti-HCV replication activity was determined by the luminescence signal from the testing well compared to DMSO controls wells. The background signal was determined by the average luminescence signal from the HCV protease inhibitor treated wells and was subtracted from the signal from the testing wells as well as the DMSO control wells. Following 3-fold serial dilutions, the EC50 and CC50 values were calculated by fitting % inhibition at each concentration to the following equation: % inhibition=100%/[(EC50/[I])^b+1]
Where b is Hill's coefficient. See, for reference, Hill, A. V., The Possible Effects of the Aggregation of the Molecules of Haemoglobin on its Dissociation Curves, J. Physiol. 40: iv-vii. (1910).
% inhibition values at a specific concentration, for example 2 μM, can also be derived from the formula above.
For orientation: Replicon systems follow genome replication, usually without infectious particles.

The mark [1] stands for this setting: 2 μM, Huh-7 HCV replicon cells, 3 days incubation, inhibition of viral replication.

The inhibition is how much of the control response was suppressed. For `CC1=CCC(C(=O)N(c2cc(C#CC(C)(C)C)sc2C(=O)O)[C@H]2CC[C@](O)(CO[C@H]3CCOC3)CC2)[C@H](C)C1` (single isomer, unassigned) [Compound 5A, 5-(3,3-dimethyl-but-1-ynyl)-3-{(4,6R-dimethyl-cyclohex-3-enecarbonyl)-[4-hydroxy-4-(tetrahydro-furan-3-yloxymethyl)-cyclohexyl]-amino}-thiophene-2-carboxylic acid], the inhibition at 2 µM under setting [1] was 100%. For orientation: % inhibition means the relative decrease from the control value, in per cent. Read a low % inhibition as a response near the control. As to `CC1=CCC(C(=O)N(c2cc(C#CC(C)(C)C)sc2C(=O)O)[C@H]2CC[C@](O)(CO[C@H]3CCOC3)CC2)[C@H](C)C1` (single isomer, unassigned) [Compound 5B, 5-(3,3-dimethyl-but-1-ynyl)-3-{(4,6R-dimethyl-cyclohex-3-enecarbonyl)-[4-hydroxy-4-(tetrahydro-furan-3-yloxymethyl)-cyclohexyl]-amino}-thiophene-2-carboxylic acid], the “% inhibition at 2 μM” value under setting [1] came to 99.95%. Regarding `CC(C)(C)C#Cc1cc(N(C(=O)[C@H]2CC[C@H](C)CC2)C2CCC(O)(COc3cccnc3)CC2)c(C(=O)O)s1` (stereo partly shown) [Compound 1, 5-(3,3-Dimethylbut-1-ynyl)-3-(N-(4-hydroxy-4-((pyridin-3-yloxy)methyl)cyclohexyl)-4-methylcyclohexanecarboxamido)thiophene-2-carboxylic acid], the inhibition at 2 µM under setting [1] was found to be 99.9%. Still for that read-out and setting: then `CC(C)(C)C#Cc1cc(N(C(=O)[C@H]2CC[C@H](C)CC2)[C@H]2CC[C@](O)(CO[C@@H]3CCOC3)CC2)c(C(=O)O)s1` [Compound 2, 5-(3,3-Dimethyl-but-1-ynyl)-3-[[4-hydroxy-4-(tetrahydrofuran-3R-yloxymethyl)-cyclohexyl]-(4-methyl-cyclohexanecarbonyl)-amino]-thiophene-2-carboxylic acid], with 100%; and `CC(C)(C)C#Cc1cc(N(C(=O)[C@H]2CC[C@H](C)CC2)[C@H]2CC[C@](O)(CO[C@H]3CCOC3)CC2)c(C(=O)O)s1` [Compound 3, 5-(3,3-Dimethyl-but-1-ynyl)-3-[[4-hydroxy-4-(tetrahydrofuran-3S-yloxymethyl)-cyclohexyl]-(4-methyl-cyclohexanecarbonyl)-amino]-thiophene-2-carboxylic acid], with 100%; and `CC(C)(C)C#Cc1cc(N(C(=O)[C@H]2CC[C@H](C)CC2)[C@H]2CC[C@@](O)(CO[C@H]3CCOC3)CC2)c(C(=O)O)s1` [Compound 4], with 99.6%. For the compound `CC1=CCC(C(=O)N(c2cc(C#CC(C)(C)C)sc2C(=O)O)[C@H]2CC[C@](O)(CO[C@H]3CCOC3)CC2)[C@@H](C)C1` (stereo partly drawn) [Compound 6, 5-(3,3-dimethyl-but-1-ynyl)-3-{(4,6S-dimethyl-cyclohex-3-enecarbonyl)-[4-hydroxy-4-(tetrahydro-furan-3(S)-yloxymethyl)-cyclohexyl]-amino}-thiophene-2-carboxylic acid], the inhibition at 2 µM under setting [1] was found to be 99.9%. Same read-out and setting: the same measure for `CC1=CC[C@@H](C(=O)N(c2cc(C#CC(C)(C)C)sc2C(=O)O)[C@H]2CC[C@](O)(CO[C@@H]3CCOC3)CC2)CC1` [Compound 7]: 100%; for `CC1=CC[C@@H](C(=O)N(c2cc(C#CC(C)(C)C)sc2C(=O)O)[C@H]2CC[C@](O)(CO[C@H]3CCOC3)CC2)CC1` [Compound 8]: 99.9%; for `CC1=CC[C@H](C(=O)N(c2cc(C#CC(C)(C)C)sc2C(=O)O)[C@H]2CC[C@](O)(CO[C@H]3CCOC3)CC2)CC1` [Compound 9]: 100%. With `CC1=CC[C@H](C(=O)N(c2cc(C#CC(C)(C)C)sc2C(=O)O)[C@H]2CC[C@](O)(CO[C@@H]3CCOC3)CC2)CC1` [Compound 10], under setting [1], the inhibition at 2 µM came to 100%.

For the compound `CC1=CC[C@H](C(=O)N(c2cc(C#CC(C)(C)C)sc2C(=O)O)[C@H]2CC[C@](O)(CO[C@H]3CCOC3)CC2)[C@@H](C)C1` [Compound 16], the inhibition at 2 µM came out at 100%. Take `COC(=O)c1sc(C#CC(C)(C)C)cc1N(C(=O)[C@H]1CC=C(C)C[C@@H]1C)[C@H]1CC[C@](O)(CO[C@H]2CCOC2)CC1` [Compound 17]: the inhibition at 2 µM under setting [1] stood at 78.8%. For the compound `CC1=CC[C@H](C(=O)N(c2cc(C#CC(C)(C)C)sc2C(=O)O)[C@H]2CC[C@](O)(CO[C@@H]3CCOC3)CC2)[C@@H](C)C1` [Compound 18], the inhibition at 2 µM under setting [1] stood at 100%. For the compound `[2H]C([2H])([2H])C(C#Cc1cc(N(C(=O)[C@H]2CC=C(C)CC2)C2CCC(O)(CO[C@H]3CCOC3)CC2)c(C(=O)O)s1)(C([2H])([2H])[2H])C([2H])([2H])[2H]` (stereo partly shown) [Compound 24], under setting [1], the inhibition at 2 µM worked out at 100%. Still for that read-out and setting: then `CC1=CC[C@H](C(=O)N(c2cc(C#CC(C)(C)CO)sc2C(=O)O)[C@H]2CC[C@](O)(CO[C@H]3CCOC3)CC2)CC1` [Compound 29, 5-(4-hydroxy-3,3-dimethylbut-1-ynyl)-3-((R)-N-((1R,4S)-4-hydroxy-4-(((S)-tetrahydrofuran-3-yloxy)methyl)cyclohexyl)-4-methylcyclohex-3-enecarboxamido)thiophene-2-carboxylic acid], with 100%.
